Test results: patent US10300067B2, “Tetrahydropyridopyrimidine compound or salt thereof” (TAIHO PHARMACEUTICAL CO., LTD., priority 2014, dated 2019)

How the values were obtained:
Type in all cases: cell-based
[1] = system: Human prostate cancer cells LNCaP; assay: Androgen-dependent inhibitory activity on proliferation of prostate cancer cells; conditions: 50% proliferation inhibition concentration, DHT 10 nmol/L, 72 hours, read-out: GI50 value
Experimental: Human prostate cancer cells LNCaP (Non-Patent Literature 5) having […] androgen receptor gene were seeded in a clear bottom 96 well microplate (BD) at 4.0×10^3/well with phenol red free RPMI1640 containing 5% DCC-FBS (hereinbelow, the medium is referred to as an evaluation medium), and then cultured overnight. The culture was added with the evaluation medium containing DHT (final concentration of DHT: 10 nmol/L) or the evaluation medium containing the compound of Examples or the compound of Comparative Examples (final concentration of the compound of Examples or the compound of Comparative Examples: 10, 30, 100, 300, 1000, 3000, 10000, or 30000 nmol/L), followed by culture for 72 hours. Then, the number of viable cells was counted. The number of viable cells was measured by using Cell Counting Kit-8 (DOJINDO LABORATORIES).

[2] = system: AR positive human prostate cancer cells VCaP; assay: Agonist activity for AR (cell proliferation rate of VCaP cells); conditions: 72 hours, 2 to 10000 nmol/L, more than 10% at any concentration = agonist activity for AR
Experimental: AR positive human prostate cancer cells VCaP (In Vivo 15:163-168, 2001) were seeded in a clear bottom 96 well microplate (BD) at 1.5×10^4/well with phenol red free RPMI1640 containing 5% DCC-FBS (hereinbelow, the medium is referred to as an evaluation medium), and then cultured overnight. The culture was added with the evaluation medium containing the compound of Examples or the compound of Comparative Examples (final concentration of the compound of Examples or the compound of Comparative Examples: 2, 5, 14, 41, 123, 370, 1111, 3333, or 10000 nmol/L), followed by culture for 72 hours. Then, the number of viable cells was counted (test group). As a control, the cells were cultured after being added with the evaluation medium only, and the number of viable cells was counted (control group). The number of viable cells was measured by using CellTiter-Glo™ Luminescent Cell Viability Assay (Promega). From the measured number of viable cells, cell proliferation rate with respect to the compound of Examples or the compound of Comparative Examples was calculated based on the number of viable cells measured in the case of using the evaluation medium only. Cell proliferation rate (%) =(Number of viable cells in test group−Number of viable cells in control group)/(Number of viable cells in control group)×100
By considering an error in the number of viable cells measured in the case of using the evaluation medium only, when the cell proliferation rate was more than 10% at any concentration of the 9 concentrations which had been evaluated, it was determined to have an agonist activity for AR.

[3] = biological target: human androgen receptor (Homo sapiens (Human), UniProt P10275); assay: Antagonist activity for AR (pMMTV-luc reporter transcription activity in transfected COS-7 cells, DHT 1 nmol/L); conditions: 50% transcription activity inhibition concentration; COS-7 cells with pMMTV-luc and pEX-hAR, DHT 1 nmol/L, 24 hours
Chain of human androgen receptor (P10275 whole entry): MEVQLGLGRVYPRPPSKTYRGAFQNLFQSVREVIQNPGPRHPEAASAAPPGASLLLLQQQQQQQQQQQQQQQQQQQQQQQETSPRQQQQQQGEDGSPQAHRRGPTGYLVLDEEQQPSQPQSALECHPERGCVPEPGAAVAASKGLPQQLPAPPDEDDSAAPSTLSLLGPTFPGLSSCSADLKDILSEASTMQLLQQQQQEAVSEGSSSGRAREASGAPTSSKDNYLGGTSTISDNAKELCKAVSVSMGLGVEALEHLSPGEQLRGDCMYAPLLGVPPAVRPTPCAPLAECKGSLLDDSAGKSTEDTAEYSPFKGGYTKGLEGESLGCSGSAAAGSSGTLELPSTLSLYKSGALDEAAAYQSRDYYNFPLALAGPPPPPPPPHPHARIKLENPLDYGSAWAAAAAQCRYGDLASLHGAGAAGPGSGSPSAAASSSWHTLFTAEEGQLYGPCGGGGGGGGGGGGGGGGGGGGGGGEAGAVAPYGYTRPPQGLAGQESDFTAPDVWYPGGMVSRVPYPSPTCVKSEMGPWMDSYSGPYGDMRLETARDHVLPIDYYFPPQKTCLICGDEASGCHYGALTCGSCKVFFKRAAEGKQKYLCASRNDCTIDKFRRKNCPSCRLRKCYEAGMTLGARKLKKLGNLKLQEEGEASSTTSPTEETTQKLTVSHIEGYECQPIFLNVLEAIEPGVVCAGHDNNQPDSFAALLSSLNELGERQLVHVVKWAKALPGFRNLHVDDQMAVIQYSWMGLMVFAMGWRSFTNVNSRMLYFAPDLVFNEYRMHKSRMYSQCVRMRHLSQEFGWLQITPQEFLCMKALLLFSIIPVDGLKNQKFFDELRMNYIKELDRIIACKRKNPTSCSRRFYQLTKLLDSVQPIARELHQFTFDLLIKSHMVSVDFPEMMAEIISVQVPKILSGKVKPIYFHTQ
Experimental: Antagonist activity for AR was evaluated according to the following method. COS-7 cells (ATCC) were transfected with pMMTV-luc vector (reporter plasmid having, as an androgen response element, […] long terminal repeat) and pEX-hAR vector (human androgen receptor expression vector: which expresses human AR gene under control of CMV promoter) by using Nucleofector (registered trademark) Kit R (Lonza) as a transfection reagent and Amaxa (Lonza). The COS-7 cells obtained after transfection were seeded in a clear bottom 96 well microplate (BD) at 1.5×10^4/well with phenol red free RPMI1640 containing 10% charcoal-treated fetal bovine serum (hereinbelow, DCC-FBS) (hereinbelow, the medium is referred to as an evaluation medium), and then cultured overnight. […] Then, the transcription activity value was measured. The transcription activity was measured by using Bright-Glo™ Luciferase Assay System (Promega).

[4] = biological target: androgen receptor (Homo sapiens (Human), UniProt P10275, T878A); assay: Activity of reducing expression level of androgen receptor (Western blotting of LNCaP cell lysate); conditions: 48 hours
Chain of androgen receptor (P10275 whole entry T878A): as the sequence (P10275 whole entry) above, with T878A counted along it
Experimental: AR positive human prostate cancer cells LNCaP were seeded in a clear bottom 6 well microplate (BD) at 3.5×10^5/well with phenol red free RPMI1640 containing 5% FBS (hereinbelow, the medium is referred to as an evaluation medium), and then cultured overnight. The culture was added with the evaluation medium containing the compound of Examples or the compound of Comparative Examples such that the final concentration of the compound of Examples or the compound of Comparative Examples was 10000 nmol/L, followed by culture for 48 hours. After culture for 48 hours, the medium was removed and the cells were washed with PBS and added with 0.1 mL of Lysis buffer (M-PER added with Protease Inhibitor Cocktail), followed by keeping at 4° C. for 20 minutes. After cell lysis, the cell solution was centrifuged to recover the supernatant as cell lysate. […] The antibody-reacting band (anti AR receptor) was quantified by LAS-3000 (FUJIFILM) using Super Signal West Pico Substrate (Thermo Scientific) as a detection reagent.

| SMILES | GI50 [1] [nM] | Cell proliferation rate (%) [2] [%] | IC50 [3] [nM] | 10 μM AR expression reducing activity [4] |
| --- | --- | --- | --- | --- |
| CC(O)(CS(=O)(=O)c1ccc(F)cc1)C(=O)Nc1ccc(C#N)c(C(F)(F)F)c1 (stereo not shown) [Comparative Example 1, N-(4-Cyano-3-(trifluoromethyl)phenyl)-3-((4-fluorophenyl)sulfonyl)-2-hydroxy-2-methylpropanamide, reference compound] | 3500 | 39.7 |  |  |
| N#Cc1ccc(N2CCc3c(ncnc3Nc3ncns3)C2)cc1C(F)(F)F [Example 1, 4-(4-((1,2,4-thiadiazol-5-yl)amino)-5,6-dihydropyrido[3,4-d]pyrimidin-7(8H)-yl)-2-(trifluoromethyl)benzonitrile] | 3000 | 8.7 | 80 | reduced (When the AR expression reducing activity is 50% or more, it is described as “reduced”) |
| CC(C)Oc1ccc(Nc2ncnc3c2CCN(c2ccc(C#N)c(C(F)(F)F)c2)C3)cc1 [Example 2, 4-(4-((4-isopropoxyphenyl)amino)-5,6-dihydropyrido[3,4-d]pyrimidin-7(8H)-yl)-2-(trifluoromethyl)benzonitrile] | 1000 | 3.8 | 370 | reduced (When the AR expression reducing activity is 50% or more, it is described as “reduced”) |
| Cn1nccc1CCOc1ccc(Nc2ncnc3c2CCN(c2ccc(C#N)c(C(F)(F)F)c2)C3)cc1 [Example 14, 4-(4-((4-(2-(1-Methyl-1H-pyrazol-5-yl)ethoxy)phenyl)amino)-5,6-dihydropyrido[3,4-d]pyrimidin-7(8H)-yl)-2-(trifluoromethyl)benzonitrile] | 1400 |  | 300 | reduced (When the AR expression reducing activity is 50% or more, it is described as “reduced”) |
| N#Cc1ccc(N2CCc3c(ncnc3Nc3ccc(S(=O)(=O)NC4CC4)cn3)C2)cc1C(F)(F)F [Example 19, 6-((7-(4-Cyano-3-(trifluoromethyl)phenyl)-5,6,7,8-tetrahydropyrido[3,4-d]pyrimidin-4-yl)amino)-N-cyclopropylpyridine-3-sulfonamide] | 3000 |  | 130 |  |
| N#Cc1ccc(N2CCc3c(ncnc3Nc3ccc(NC(=O)CC(F)(F)F)cn3)C2)cc1C(F)(F)F [Example 23, N-(6-((7-(4-Cano-3-(trifluoromethyl)phenyl)-5,6,7,8-tetrahydropyrido[3,4-d]pyrimidin-4-yl)amino)pyridin-3-yl)-3,3,3-trifluoropropanamide] | 1500 | 5.1 | 800 |  |
| N#Cc1ccc(N2CCc3c(ncnc3Nc3ccc(C(=O)NCC(F)(F)F)nn3)C2)cc1C(F)(F)F [Example 24, 6-((7-(4-Cyano-3-(trifluoromethyl)phenyl)-5,6,7,8-tetrahydropyrido[3,4-d]pyrimidin-4-yl)amino)-N-(2,2,2-trifluoroethyl)pyridazine-3-carboxamide] | 3500 |  | 70 | reduced (When the AR expression reducing activity is 50% or more, it is described as “reduced”) |
| N#Cc1ccc(N2CCc3c(ncnc3Nc3ccc(C(=O)NCC(F)F)cn3)C2)cc1C(F)(F)F [Example 27, 6-((7-(4-Cyano-3-(trifluoromethyl)phenyl)-5,6,7,8-tetrahydropyrido[3,4-d]pyrimidin-4-yl)amino)-N-(2,2-difluoroethyl)nicotinamide] | 2800 | −0.2 | 90 |  |
| N#Cc1ccc(N2CCc3c(ncnc3Nc3ccc(C(=O)NCC(F)F)nn3)C2)cc1C(F)(F)F [Example 28, 6-((7-(4-Cyano-3-(trifluoromethyl)phenyl)-5,6,7,8-tetrahydropyrido[3,4-d]pyrimidin-4-yl)amino)-N-(2,2-difluoroethyl)pyridazine-3-carboxamide] | 3200 |  | 20 | reduced (When the AR expression reducing activity is 50% or more, it is described as “reduced”) |
| N#Cc1ccc(N2CCc3c(ncnc3Nc3ccc(C(=O)N[C@H]4CC[C@H](O)CC4)nn3)C2)cc1Cl [Example 29, 6-((7-(3-Chloro-4-cyanophenyl)-5,6,7,8-tetrahydropyrido[3,4-d]pyrimidin-4-yl)amino)-N-((1r,4r)-4-hydroxycyclohexyl)pyridazine-3-carboxamide] | 200 |  | 200 |  |
| N#Cc1ccc(N2CCc3c(ncnc3Nc3ccc(C(=O)NCC4(O)CC4)nn3)C2)cc1C(F)(F)F [Example 30, 6-((7-(4-Cyano-3-(trifluoromethyl)phenyl)-5,6,7,8-tetrahydropyrido[3,4-d]pyrimidin-4-yl)amino)-N-((1-hydroxycyclopropyl)methyl)pyridazine-3-carboxamide] | 3200 |  |  | reduced (When the AR expression reducing activity is 50% or more, it is described as “reduced”) |
| CC(C)(O)CNC(=O)c1cnc(Nc2ncnc3c2CCN(c2ccc(C#N)c(C(F)(F)F)c2)C3)cn1 [Example 33, 5-((7-(4-Cyano-3-(trifluoromethyl)phenyl)-5,6,7,8-tetrahydropyrido[3,4-d]pyrimidin-4-yl)amino)-N-(2-hydroxy-2-methylpropyl)pyrazine-2-carboxamide] | 2100 | 4.4 | 310 |  |
| Cn1nccc1CCNC(=O)c1nnc(Nc2ncnc3c2CCN(c2ccc(C#N)c(C(F)(F)F)c2)C3)s1 [Example 35, 5-((7-(4-Cano-3-(trifluoromethyl)phenyl)-5,6,7,8-tetrahydropyrido[3,4-d]pyrimidin-4-yl)amino)-N-(2-(1-methyl-1H-pyrazol-5-yl)ethyl)-1,3,4-thiadiazol-2-carboxamide] | 1600 | 0.1 | 190 |  |
| CC(C)(O)C1CCN(C(=O)c2coc(Nc3ncnc4c3CCN(c3ccc(C#N)c(C(F)(F)F)c3)C4)n2)CC1 [Example 41, 4-(4-((4-(4-(2-Hydroxypropan-2-yl)piperidin-1-carbonyl)oxazol-2-yl)amino)-5,6-dihydropyrido[3,4-d]pyrimidin-7(8H)-yl)-2-(trifluoromethyl)benzonitrile] | 2400 |  | 1940 | reduced (When the AR expression reducing activity is 50% or more, it is described as “reduced”) |
| CC(C)(COc1ncc(Nc2ncnc3c2CCN(c2ccc(C#N)c(C(F)(F)F)c2)C3)cc1Cl)n1cnnn1 [Example 52, 4-(4-((5-Chloro-6-(2-methyl-2-(1H-tetrazol-1-yl)propoxy)pyridin-3-yl)amino)-5,6-dihydropyrido[3,4-d]pyrimidin-7(8H)-yl)-2-(trifluoromethyl)benzonitrile] |  | −3.4 | 150 | reduced (When the AR expression reducing activity is 50% or more, it is described as “reduced”) |
